Data taken from patent US10344330B2, “Glatiramer acetate response biomarker mRNA potency assay” (Mylan Inc., priority 2013, dated 2019).
“And” between values parts separate entries of the source, which are not always exact repeats. Equal values may be shown once.

Assays:
mIL-13 mRNA in LN cells = mIL-13 mRNA in LN cells of Copaxone P53974-immunized CSJLF1/JRj mice, three identical experiments (Example VII); type: cell-based, mouse; conditions: 2.5 μg/mL, 6 hours
Protocol: (§1) A real-time polymerase chain reaction method was used to measure the expression of IL-2, IL-4, IL-5, and IL-13 mRNA in GA-stimulated LN cells from GA-immunized mice. Three identical experiments were carried out. In each experiment, mice were immunized with GA, and LN cells from each group of mice were stimulated with each of six concentrations of the same batch of GA used for immunization. GAPDH and β-actin were used as reference genes.
(§2) Each of the three groups consisted of four female CSJLF1/JRj (Janvier Labs) mice, approximately 8-12 weeks of age. On Day 0, mice were immunized by injection of 0.1 mL injection volume into four footpads (about 10 μL into each of the front footpad, 40 μL into each of the hind footpad). The immunization contained a total dose of 250 μg of one lot of GA (Copaxone batch P53974)+CFA (0.5 mg/mL). On Day 10 post-immunization, lymph cells were isolated from animals and stimulated with enriched DCCM-1 (mock-stimulated vehicle control), 2.5 μg/mL Concanavalin A (ConA, a positive control) or GA.
(§3) Ten days following immunization, LN cell samples isolated from the immunized mice each were stimulated with 0.3, 1, 2.5, 5, 10, or 20 μg/mL of Copaxone batch P53974 as shown in Table 43.
(§4) Total RNA was isolated from stimulated LN cells after 6 hours of incubation at about 37° C. in a humidified CO2 incubator, using the SV 96 Total RNA Isolation System according to the manufacturer's protocol (Promega, Cat. #Z3500). cDNA was synthesized from each RNA sample in triplicate using High Capacity cDNA Reverse Transcription Kit (Life Technologies, formerly Applied Biosystems) according to the manufacturer's protocol.
(§5) Samples were prepared using TaqMan Universal PCR Master Mix II (Life Technologies) and run in 96-well plates using a Real-Time PCR system (7500, Life Technologies) using the following program for Real-Time PCR:
(§6) The levels of cytokine mRNA were calculated using a standard ΔΔCT method as described previously.

[1] = system: mouse CD25 (IL-2ra) mRNA in primary LN cells; assay: Mouse CD25 mRNA in LN cells of Copaxone P53974-immunized CSJLF1/JRj mice stimulated with GA lots (Example VIII); type: cell-based; conditions: stimulation conc. 2.5 μg/mL, relative to DCCM1 medium control
Protocol: [The procedure below names another target; the source lists this target under the same test.] (§7) A real-time polymerase chain reaction method was used to measure the expression of IL-2, IL-4, IL-5, and IL-13 mRNA in LN cells, from GA-immunized mice, following stimulation with one of twelve GA lots. One lot of GA (Copaxone P53974) was used for immunization. […] Twenty female CSJLF1/JRj mice (Janvier Labs), approximately 8-12 weeks of age, were immunized by injection of 0.1 mL injection volume into four footpads (about 10 μL into each of the front footpad, 40 μL into each of the hind footpad) on Day 0. […] Samples were prepared using TaqMan Universal PCR Master Mix II (Life Technologies) and run in 96-well plates using a Real-Time PCR system (7500, Life Technologies) using the following RT-PCR program: The levels of cytokine mRNA were calculated using a standard ΔΔCT method as described previously.

mIL-4 mRNA in LN cells = mIL-4 mRNA in LN cells of Copaxone P53974-immunized CSJLF1/JRj mice, three identical experiments (Example VII); type: cell-based, mouse; conditions: 2.5 μg/mL, 6 hours
Protocol: as §1, §2, §3, §4, §5, §6

[2] = system: mouse IL-13 mRNA in primary LN cells; assay: Mouse IL-13 mRNA in LN cells of Copaxone P53974-immunized CSJLF1/JRj mice stimulated with twelve GA lots (Example VIII); type: cell-based; conditions: stimulation conc. 2.5 μg/mL; normalized to B-Actin
Protocol: as §7

mIL-2 mRNA in LN cells = mIL-2 mRNA in LN cells of Copaxone P53974-immunized CSJLF1/JRj mice, three identical experiments, GAPDH and β-actin reference (Example VII); type: cell-based, mouse; conditions: 2.5 μg/mL, 6 hours
Protocol: as §1, §2, §3, §4, §5, §6

[3] = system: mouse IL-5 mRNA in primary LN cells; assay: Mouse IL-5 mRNA in LN cells of Copaxone P53974-immunized CSJLF1/JRj mice stimulated with twelve GA lots (Example VIII); type: cell-based; conditions: stimulation conc. 2.5 μg/mL; for IL-5 mRNA/GAPDH Fold Change: normalized to GAPDH
Protocol: as §7

mIL-5 mRNA in LN cells = mIL-5 mRNA in LN cells of Copaxone P53974-immunized CSJLF1/JRj mice, three identical experiments (Example VII); type: cell-based, mouse; conditions: 2.5 μg/mL, 6 hours
Protocol: as §1, §2, §3, §4, §5, §6

[4] = system: mouse IL-2 mRNA in primary LN cells; assay: Mouse IL-2 mRNA in LN cells of Copaxone P53974-immunized CSJLF1/JRj mice stimulated with twelve GA lots (Example VIII); type: cell-based
Protocol: as §7

[5] = system: mouse IL-17 mRNA in primary LN cells; assay: Mouse IL-17 mRNA in LN cells of Copaxone P53974-immunized CSJLF1/JRj mice stimulated with GA lots (Example VIII); type: cell-based; conditions: stimulation conc. 2.5 μg/mL; for IL-17 mRNA/B-Actin Fold Change: normalized to B-Actin; for IL-17 mRNA/GAPDH Fold Change: normalized to GAPDH
Protocol: [The procedure below names another target; the source lists this target under the same test.] as §7

secreted IL-2 = assay: Secreted IL-2 from treated LN cells (other experiments, data not shown); type: cell-based, mouse; conditions: increasing concentrations
Description: This dose-dependent response was consistent for both test and reference compounds independent of whether Copaxone® or Mylan GMA was used as the immunizing antigen.

[6] = Plate 1, positive control 2.5 μg/mL listed in the C1 section
[7] = Plate 1, positive control 2.5 μg/mL listed in the C2 section
[8] = Plate 1, positive control 2.5 μg/mL listed in the C3 section
[9] = relative to DCCM1 medium control

## Concanavalin A [ConA, reference compound]
mIL-13 mRNA in LN cells; Group 1
  IL-13 mRNA/Actβ Fold Change: 33.3 fold
  IL-13 mRNA/GAPDH Fold Change: 24.1 fold
mIL-13 mRNA in LN cells; Group 2
  IL-13 mRNA/Actβ Fold Change: 28.4 fold
  IL-13 mRNA/GAPDH Fold Change: 23.8 fold
mIL-13 mRNA in LN cells; Group 3
  IL-13 mRNA/Actβ Fold Change: 25.7 fold
  IL-13 mRNA/GAPDH Fold Change: 17.8 fold
[1]; normalized to B-Actin
  CD25 mRNA/B-Actin Fold Change: 4.1 and 5.6 and 4.7 and 5.2 and 5.0 and 5.1
[1]; normalized to GAPDH
  CD25 mRNA/GAPDH Fold Change: 3.6 and 4.4 and 4.5 and 5.6 and 4.8 and 4.6 and 4.7
mIL-4 mRNA in LN cells; Group 1
  IL-4 mRNA/Actβ Fold Change: 54.5 fold
  IL-4 mRNA/GAPDH Fold Change: 35.6 fold
mIL-4 mRNA in LN cells; Group 2
  IL-4 mRNA/Actβ Fold Change: 38.5 fold
  IL-4 mRNA/GAPDH Fold Change: 34.2 fold
mIL-4 mRNA in LN cells; Group 3
  IL-4 mRNA/Actβ Fold Change: 35.7 fold
  IL-4 mRNA/GAPDH Fold Change: 21.8 fold
[2]
  IL-13 mRNA/B-Actin Fold Change: 29.3 fold
mIL-2 mRNA in LN cells; Group 1
  IL-2 mRNA/Actβ Fold Change: 157.7 fold
  IL-2 mRNA/GAPDH Fold Change: 102.9 fold
mIL-2 mRNA in LN cells; Group 2
  IL-2 mRNA/Actβ Fold Change: 137.4 fold
  IL-2 mRNA/GAPDH Fold Change: 122.2 fold
mIL-2 mRNA in LN cells; Group 3
  IL-2 mRNA/Actβ Fold Change: 91.7 fold
  IL-2 mRNA/GAPDH Fold Change: 55.8 fold
[3]; normalized to B-Actin
  IL-5 mRNA/B-Actin Fold Change: 23.6 fold and 20.9 fold and 21.3 fold and 21.4 fold
[3]
  IL-5 mRNA/GAPDH Fold Change: 23.6 fold and 20.0 fold and 20.6 fold and 22.3 fold
[3]; ΔΔCT
  IL-5 mRNA/GAPDH Fold Change: 25.7 fold and 32.7 fold and 22.2 fold and 20.8 fold and 26.0 fold and 25.2 fold and 30.3 fold and 29.3 fold
mIL-5 mRNA in LN cells; Group 1
  IL-5 mRNA/Actβ Fold Change: 16.6 fold
  IL-5 mRNA/GAPDH Fold Change: 12.0 fold
mIL-5 mRNA in LN cells; Group 2
  IL-5 mRNA/Actβ Fold Change: 25.4 fold
  IL-5 mRNA/GAPDH Fold Change: 21.4 fold
mIL-5 mRNA in LN cells; Group 3
  IL-5 mRNA/Actβ Fold Change: 12.4 fold
  IL-5 mRNA/GAPDH Fold Change: 8.6 fold
[4]; [6]
  IL-2 mRNA/B-Actin Fold Change: 118.1 fold
  IL-2 mRNA/GAPDH Fold Change: 116.9 fold
[4]; [7]
  IL-2 mRNA/B-Actin Fold Change: 111.2 fold
  IL-2 mRNA/GAPDH Fold Change: 103.7 fold
[4]; [8]
  IL-2 mRNA/B-Actin Fold Change: 105.2 fold
  IL-2 mRNA/GAPDH Fold Change: 87.6 fold
[4]; stimulation conc. 2.5 μg/mL, normalized to B-Actin
  IL-2 mRNA/B-Actin Fold Change: 109.3 fold and 120.1 fold and 75.2 fold and 81.3 fold and 103.6 fold and 101.9 fold and 92.2 fold and 98.9 fold
[4]; stimulation conc. 2.5 μg/mL, normalized to B-Actin, ΔΔCT
  IL-2 mRNA/B-Actin Fold Change: 106.7 fold and 96.2 fold and 103.1 fold and 120.5 fold and 121.8 fold
[4]; stimulation conc. 2.5 μg/mL, normalized to GAPDH
  IL-2 mRNA/GAPDH Fold Change: 103.2 fold and 111.7 fold and 82.0 fold and 84.8 fold and 158.0 fold and 127.7 fold and 102.6 fold and 127.5 fold
[4]; stimulation conc. 2.5 μg/mL, normalized to GAPDH, ΔΔCT
  IL-2 mRNA/GAPDH Fold Change: 100.3 fold and 92.7 fold and 99.8 fold and 147.4 fold and 131.3 fold
[5]
  IL-17 mRNA/B-Actin Fold Change: 133.2 fold and 224.2 fold and 128.3 fold and 204.1 fold
  IL-17 mRNA/GAPDH Fold Change: 125.8 fold and 208.6 fold and 139.9 fold and 213.0 fold
[5]; [9]
  IL-17 mRNA/B-Actin Fold Change: 67.2 and 83.0 and 70.9 and 64.8
  IL-17 mRNA/GAPDH Fold Change: 102.6 and 104.0 and 78.8 and 83.6

## L-glutamic acid polymer with L-alanine, L-lysine and L-tyrosine, acetate (salt) [GA]
Secreted IL-2
  secreted IL-2 from treated cells: increased in dose-dependent fashion
